According to patent US4001325A, “α-Chloroacetanilide selective herbicides” (Diamond Shamrock Corporation, priority 1973, dated 1977):

Experiments:
Barnyardgrass [1] = test: Example 17 selective herbicidal activity in corn crop, weed kill; format: in vivo, Echinochloa crusgalli; conditions: Echinochloa crus-galli, 3-4 weeks after planting
Source text: (§1) This example illustrates the selective herbicidal activity of two of the presently preferred compounds of this invention against various weed species in a corn crop.
(§2) Plots of light sandy soil, cleared of all weeds, are uniformly treated with aqueous dispersions prepared from an emulsifiable concentrate containing 2- 4 pounds of active ingredient per gallon. Diluted aqueous dispersions are applied as surface treatments at 2.0, 1.0, 0.5, and 0.25 pound of active ingredient per acre (lb/A).
(§3) The treated test plots are sown to corn and with seeds of the following weed species:
(§4) Three to four weeks after planting, the degree of damage to both the corn stands and the weed plants is assessed from a rating of 0% (no injury) to 100% (complete destruction).

Sorghum = test: Example 18 phytotoxic effects on crop stands in different soils; format: in vivo, grain sorghum
Protocol: (§5) To further illustrate the herbicidal activity of compounds of this invention in different types of soil as would be encountered in different crop growing localities, a preemergence herbicide test is conducted generally as outlined previously herein. Two light sandy soils are employed containing 0.7% and 1.8% organic matter (O.M.), respectively, along with two loam-type, heavier soils containing either 2.0% or 5-5.5% organic matter (O.M.).
(§6) The test plots are all sprayed uniformly with formulations of the test compounds providing 2.0, 1.0, 0.5, and 0.25 pound of active chemical per acre (lb/A).
(§7) Prior to treatment, the soil plots are sown to field corn, soybean, and grain sorghum crops and seeds of barnyard-grass and yellow foxtail.
Three weeks after planting, the percent control of plant growth is rated from 0% (no injury) to 100% (total destruction). The results obtained are as follows:
Phytotoxic effects on the crop stands are similarly rated with the following results: […]

Barnyardgrass [2] = test: Example 18 preemergence herbicide test in different soils, % control; format: in vivo, barnyard-grass; conditions: three weeks
Protocol: as §5, §6, §7
Three weeks after planting, the percent control of plant growth is rated from 0% (no injury) to 100% (total destruction).

Morningglory = test: Example 17 selective herbicidal activity in corn crop, weed kill; format: in vivo, Ipomoea sp.; conditions: Ipomoea, 3-4 weeks after planting
Source text: as §1, §2, §3, §4

Goosegrass [3] = test: as above; format: in vivo, Eleusine indica; conditions: 3-4 weeks after planting
Source text: as §1, §2, §3, §4

corn [4] = test: Example 17 damage to corn crop; format: in vivo; conditions: 2 lb/A
Source text: as §1, §2, §3, §4

[5] = test system: broadleaf species: pigweed, velvetleaf, morningglory; test: Greenhouse preemergence herbicide test, broadleaves; format: in vivo; conditions: two weeks after treatment, 20160 min
Protocol: (§8) To illustrate the preemergence herbicidal efficiency of the alkyl-substituted 2-chloro-N-propargylacetanilides of this invention, test formulations are prepared of each compound by mixing 20 ml of an acetone solution containing 0.125 g of chemical with 20 ml of water containing 0.01 g of Triton X-155 surfactant. The resultant formulations contain 3125 ppm of test compound, 50% by volume of acetone and 0.025% by weight of surfactant. Appropriate lower concentrations are obtained by diluting this formulation with surfactant-acetone solution so that the concentration of adjuvants is maintained at the original levels.
(§9) Seeds of three broadleaf and three grass species are planted in soil contained in 10 inch × 8 inch × 3 inch aluminum pans filled with 1.5 inches of composted soil. The broadleaf species are pigweed (Amaranthus retroflexus), velvetleaf (Abutilon theophrasti), and morningglory (Ipomea coccinea); the grasses are red millet (Panicum milliacem), green foxtail (Setaria viridis) and Japanese millet (Echinochloa frumentacea).
(§10) The seeded pans are sprayed so that the soil surface is uniformly covered with dilutions of the stock formulation providing dosage rates of the test compounds as shown in the following table.
(§11) Two weeks after treatment, percent control (plant kill) at each dosage rate is estimated with results as follows: […]

[6] = test system: grass species: red millet, green foxtail, Japanese millet; test: Greenhouse preemergence herbicide test, grasses; format: in vivo, Panicum milliacem, Setaria viridis, Echinochloa frumentacea; conditions: pre-emergence, 336 h, two weeks after treatment
Protocol: as §8, §9, §10, §11

Prickly Sida = test: Field preemergence test, weed control; format: in vivo; conditions: 3-4 weeks after planting
Source text: (§12) Test plots of fertilized, light sandy soil containing 0.7% organic matter are sprayed uniformly with aqueous suspensions prepared from emulsifiable concentrates containing 12%, by weight, of the test chemicals diluted to provide dosage rates of the test compounds corresponding to 2.0, 1.0, 0.5, and 0.25 pound per acre (lb/A). The plots are then sown with seeds of the following crop plants: sweet corn, cotton (Coker 413) and soybeans, var. Davis. Seeds of the following weed plants are planted: redroot pigweed, prickly sida, common lambsquarter, goosegrass and giant foxtail.
(§13) Three to four weeks after planting, percent control (plant kill) of the test plants is estimated, from a rating of 0 which denotes no injury to the plant up to 100 which denotes complete destruction. The herbicidal action of the test compounds obtained on the weed species is as follows: […]

Goosegrass [7] = test: Field preemergence test, weed control; format: in vivo; conditions: 3-4 weeks after planting
Source text: as §12, §13

Corn [8] = test: Field preemergence test, phytotoxic effects on crop; format: in vivo, sweet corn
Source text: as §12
Three to four weeks after planting, percent control (plant kill) of the test plants is estimated, from a rating of 0 which denotes no injury to the plant up to 100 which denotes complete destruction. The herbicidal action of the test compounds obtained on the weed species is as follows:
Phytotoxic effects observed on the crop species is estimated with results as follows: […]

[9] = 0.5 lb/A, Heavy Soil 5-5.5% O.M.
[10] = 0.5 lb/A, Medium Soil 2.0% O.M.
[11] = 1.0 lb/A, Heavy Soil 5-5.5% O.M.
[12] = 1.0 lb/A, Medium Soil 2.0% O.M.
[13] = 2.0 lb/A, Heavy Soil 5-5.5% O.M.
[14] = 2.0 lb/A, Medium Soil 2.0% O.M.

C#CCN(C(=O)CCl)c1c(CC)cccc1CC [Example 9, 2-Chloro-2',6'-diethyl-N-propargylacetanilide]
mortality at 280.212 g/ha (Barnyardgrass [1]; 0.25 lb/A): 68% | mortality at 560.425 g/ha (Barnyardgrass [1]; 0.5 lb/A): 98% | mortality at 1120.85 g/ha (Barnyardgrass [1]; 1.0 lb/A): 98% | mortality at 2241.7 g/ha (Barnyardgrass [1]; 2.0 lb/A): 100% | % Phytotoxicity, Sorghum (Sorghum; [9]): 35% | % Phytotoxicity, Sorghum (Sorghum; [10]): 40% | % Phytotoxicity, Sorghum (Sorghum; 0.5 lb/A, Sand 0.7% O.M.): 0% | % Phytotoxicity, Sorghum (Sorghum; 0.5 lb/A, Sand 1.8% O.M.): 10% | % Phytotoxicity, Sorghum (Sorghum; [11]): 75% | % Phytotoxicity, Sorghum (Sorghum; [12]): 55% | % Phytotoxicity, Sorghum (Sorghum; 1.0 lb/A, Sand 0.7% O.M.): 10% | % Phytotoxicity, Sorghum (Sorghum; 1.0 lb/A, Sand 1.8% O.M.): 30% | % Phytotoxicity, Sorghum (Sorghum; [13]): 99% | % Phytotoxicity, Sorghum (Sorghum; [14]): 95% | % Phytotoxicity, Sorghum (Sorghum; 2.0 lb/A, Sand 0.7% O.M.): 30% | % Phytotoxicity, Sorghum (Sorghum; 2.0 lb/A, Sand 1.8% O.M.): 70% | % Control, Barnyardgrass (Barnyardgrass [2]; [9]): 90% | % Control, Barnyardgrass (Barnyardgrass [2]; [10]): 95% | % Control, Barnyardgrass (Barnyardgrass [2]; 0.5 lb/A, Sand 0.7% O.M.): 60% | % Control, Barnyardgrass (Barnyardgrass [2]; 0.5 lb/A, Sand 1.8% O.M.): 85% | % Control, Barnyardgrass (Barnyardgrass [2]; [11]): 98% | % Control, Barnyardgrass (Barnyardgrass [2]; [12]): 100% | % Control, Barnyardgrass (Barnyardgrass [2]; 1.0 lb/A, Sand 0.7% O.M.): 90% | % Control, Barnyardgrass (Barnyardgrass [2]; 1.0 lb/A, Sand 1.8% O.M.): 90% | % Control, Barnyardgrass (Barnyardgrass [2]; [13]): 100% | % Control, Barnyardgrass (Barnyardgrass [2]; [14]): 100% | % Control, Barnyardgrass (Barnyardgrass [2]; 2.0 lb/A, Sand 0.7% O.M.): 100% | % Control, Barnyardgrass (Barnyardgrass [2]; 2.0 lb/A, Sand 1.8% O.M.): 100% | mortality at 280.212 g/ha (Morningglory; 0.25 lb/A): 0% | mortality at 560.425 g/ha (Morningglory; 0.5 lb/A): 0% | mortality at 1120.85 g/ha (Morningglory; 1.0 lb/A): 0% | mortality at 2241.7 g/ha (Morningglory; 2.0 lb/A): 3% | % Weed Kill, Goosegrass (Goosegrass [3]; 0.25 lb/A): 87% | % Weed Kill, Goosegrass (Goosegrass [3]; 0.5 lb/A): 100% | % Weed Kill, Goosegrass (Goosegrass [3]; 1.0 lb/A): 100% | % Weed Kill, Goosegrass (Goosegrass [3]; 2.0 lb/A): 100% | phytotoxic effects on corn (corn [4]): no phytotoxic effects | % Control, Broadleaves ([5]; 0.062 lb/A): 0% | % Control, Broadleaves ([5]; 0.125 lb/A): 0% | % Control, Broadleaves ([5]; 0.25 lb/A): 0% | % Control, Broadleaves ([5]; 0.5 lb/A): 35% | % Control, Broadleaves ([5]; 1.0 lb/A): 35% | pest or weed control at 69.4927 g/ha ([6]; 0.062 lb/A): 85% | pest or weed control at 140.106 g/ha ([6]; 0.125 lb/A): 95% | pest or weed control at 280.212 g/ha ([6]; 0.25 lb/A): 95% | pest or weed control at 560.425 g/ha ([6]; 0.5 lb/A): 90% | pest or weed control at 1120.85 g/ha ([6]; 1.0 lb/A): 95% | % Weed Control, Prickly Sida (Prickly Sida; 0.25 lb/A): 0% | % Weed Control, Prickly Sida (Prickly Sida; 0.5 lb/A): 80% | % Weed Control, Prickly Sida (Prickly Sida; 1.0 lb/A): 42% | % Weed Control, Prickly Sida (Prickly Sida; 2.0 lb/A): 93% | % Weed Control, Goosegrass (Goosegrass [7]; 0.25 lb/A): 94% | % Weed Control, Goosegrass (Goosegrass [7]; 0.5 lb/A): 98% | % Weed Control, Goosegrass (Goosegrass [7]; 1.0 lb/A): 100% | % Weed Control, Goosegrass (Goosegrass [7]; 2.0 lb/A): 100% | % Crop Kill, Corn (Corn [8]; 1.0 lb/A): 0% | % Crop Kill, Corn (Corn [8]; 2.0 lb/A): 3%
